Measurements: ChEMBL document CHEMBL5442175, “EUbOPEN Chemogenomics Library - PDSP Secondary Binding” (2024)
pKi: −log10 of the molar value. Each block holds one molecule with its values, some of them ahead of it.

Key:
Histamine H3 receptor = Histamine H3 receptor (Homo sapiens, UniProt Q9Y5N1); test: (§1) PDSP Secondary Binding target: HRH3 - Compounds are tested at 10 uM concentration, plate are incubated at room temperature in the dark for 90 minutes. Reaction are stopped by vacuum filtration onto 0.3% polyethyleneimine soaked filter mats using Filtermate harvester. Scintillation cocktail is then melted onto microwave-dried filters on a hot plate and the radio activity is counted in Microbia counter.
[1] = target: Sigma intracellular receptor 2 (Homo sapiens, UniProt Q5BJF2); test: as §1, with “TMEM97” for “HRH3”
Sequence of Sigma intracellular receptor 2 (Q5BJF2 whole entry): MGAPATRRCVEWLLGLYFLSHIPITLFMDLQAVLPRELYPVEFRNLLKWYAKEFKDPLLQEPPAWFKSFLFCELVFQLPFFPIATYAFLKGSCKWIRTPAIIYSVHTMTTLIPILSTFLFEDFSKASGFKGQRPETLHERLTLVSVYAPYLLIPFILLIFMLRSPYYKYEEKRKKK

D(4) dopamine receptor = target: T1, D(4) dopamine receptor (Homo sapiens, UniProt P21917); test: as §1, with “DRD4” for “HRH3”
T1 sequence (P21917 whole entry): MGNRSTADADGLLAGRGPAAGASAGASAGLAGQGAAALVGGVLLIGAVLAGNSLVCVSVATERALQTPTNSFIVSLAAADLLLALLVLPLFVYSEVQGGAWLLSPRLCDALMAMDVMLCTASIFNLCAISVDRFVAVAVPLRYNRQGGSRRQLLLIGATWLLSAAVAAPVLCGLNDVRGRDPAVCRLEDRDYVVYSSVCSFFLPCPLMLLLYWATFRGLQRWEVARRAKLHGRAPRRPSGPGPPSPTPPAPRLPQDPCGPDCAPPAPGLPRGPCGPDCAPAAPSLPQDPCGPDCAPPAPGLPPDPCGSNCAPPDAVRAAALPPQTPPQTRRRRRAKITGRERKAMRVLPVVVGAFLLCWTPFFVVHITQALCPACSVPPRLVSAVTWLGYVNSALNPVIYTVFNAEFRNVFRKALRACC

[2] = target: 5-hydroxytryptamine receptor 1E (Homo sapiens, UniProt P28566); test: as §1, with “HTR1E” for “HRH3”
Sequence of 5-hydroxytryptamine receptor 1E (P28566 whole entry): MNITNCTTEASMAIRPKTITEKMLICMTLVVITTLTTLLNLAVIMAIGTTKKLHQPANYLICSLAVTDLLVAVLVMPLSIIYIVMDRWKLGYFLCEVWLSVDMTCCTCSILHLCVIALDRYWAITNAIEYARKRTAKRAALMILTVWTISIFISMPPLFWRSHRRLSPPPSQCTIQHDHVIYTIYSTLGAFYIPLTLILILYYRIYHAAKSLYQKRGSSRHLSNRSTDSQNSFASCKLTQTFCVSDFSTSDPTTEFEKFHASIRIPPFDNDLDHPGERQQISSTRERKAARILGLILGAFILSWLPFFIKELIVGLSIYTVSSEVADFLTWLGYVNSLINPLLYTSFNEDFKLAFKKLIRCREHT

D(2) dopamine receptor = D(2) dopamine receptor (Homo sapiens, UniProt P14416); test: as §1, with “DRD2” for “HRH3”
Sequence of D(2) dopamine receptor (P14416 whole entry): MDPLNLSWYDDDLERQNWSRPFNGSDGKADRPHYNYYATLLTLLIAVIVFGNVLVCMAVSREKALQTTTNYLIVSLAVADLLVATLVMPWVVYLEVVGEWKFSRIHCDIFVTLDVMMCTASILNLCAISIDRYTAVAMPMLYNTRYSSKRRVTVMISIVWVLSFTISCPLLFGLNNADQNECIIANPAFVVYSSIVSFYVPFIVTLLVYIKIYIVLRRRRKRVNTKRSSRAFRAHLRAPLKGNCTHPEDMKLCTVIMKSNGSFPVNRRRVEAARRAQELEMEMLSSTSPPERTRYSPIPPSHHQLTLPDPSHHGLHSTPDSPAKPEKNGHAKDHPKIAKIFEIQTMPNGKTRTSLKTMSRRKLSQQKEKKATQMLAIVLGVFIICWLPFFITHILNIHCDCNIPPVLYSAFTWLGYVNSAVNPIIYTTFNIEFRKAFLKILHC

Mu-type opioid receptor = Mu-type opioid receptor (Homo sapiens, UniProt P35372); test: as §1, with “OPRM1” for “HRH3”
Sequence of Mu-type opioid receptor (P35372 whole entry): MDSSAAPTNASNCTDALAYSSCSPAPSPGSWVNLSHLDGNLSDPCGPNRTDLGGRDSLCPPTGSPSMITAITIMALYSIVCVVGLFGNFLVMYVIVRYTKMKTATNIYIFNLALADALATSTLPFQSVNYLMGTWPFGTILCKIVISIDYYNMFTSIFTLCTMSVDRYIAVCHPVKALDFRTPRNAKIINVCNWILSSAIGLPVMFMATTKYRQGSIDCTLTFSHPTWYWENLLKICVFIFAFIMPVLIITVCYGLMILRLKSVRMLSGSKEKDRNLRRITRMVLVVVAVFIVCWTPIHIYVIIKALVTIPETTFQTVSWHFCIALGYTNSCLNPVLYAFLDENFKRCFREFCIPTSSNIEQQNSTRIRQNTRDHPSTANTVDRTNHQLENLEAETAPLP

[3] = target: T2, Alpha-1B adrenergic receptor (Homo sapiens, UniProt P35368); test: as §1, with “ADRA1B” for “HRH3”
T2 sequence (P35368 whole entry): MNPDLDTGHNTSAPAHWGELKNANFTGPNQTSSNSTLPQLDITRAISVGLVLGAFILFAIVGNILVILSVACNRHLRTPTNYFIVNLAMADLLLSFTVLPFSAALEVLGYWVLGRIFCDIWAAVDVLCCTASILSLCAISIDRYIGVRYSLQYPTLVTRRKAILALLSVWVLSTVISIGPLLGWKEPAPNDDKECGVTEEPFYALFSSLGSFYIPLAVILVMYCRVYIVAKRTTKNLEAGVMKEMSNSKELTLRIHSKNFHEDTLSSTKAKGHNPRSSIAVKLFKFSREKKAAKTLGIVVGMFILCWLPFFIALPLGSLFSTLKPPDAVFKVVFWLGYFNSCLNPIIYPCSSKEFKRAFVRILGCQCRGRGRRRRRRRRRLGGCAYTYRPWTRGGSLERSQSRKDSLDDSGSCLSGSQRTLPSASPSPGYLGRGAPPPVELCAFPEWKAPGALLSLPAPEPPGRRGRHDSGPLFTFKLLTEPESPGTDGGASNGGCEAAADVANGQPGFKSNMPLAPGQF

[4] = target: T3, 5-hydroxytryptamine receptor 1A (Homo sapiens, UniProt P08908); test: as §1, with “HTR1A” for “HRH3”
T3 sequence (P08908 whole entry): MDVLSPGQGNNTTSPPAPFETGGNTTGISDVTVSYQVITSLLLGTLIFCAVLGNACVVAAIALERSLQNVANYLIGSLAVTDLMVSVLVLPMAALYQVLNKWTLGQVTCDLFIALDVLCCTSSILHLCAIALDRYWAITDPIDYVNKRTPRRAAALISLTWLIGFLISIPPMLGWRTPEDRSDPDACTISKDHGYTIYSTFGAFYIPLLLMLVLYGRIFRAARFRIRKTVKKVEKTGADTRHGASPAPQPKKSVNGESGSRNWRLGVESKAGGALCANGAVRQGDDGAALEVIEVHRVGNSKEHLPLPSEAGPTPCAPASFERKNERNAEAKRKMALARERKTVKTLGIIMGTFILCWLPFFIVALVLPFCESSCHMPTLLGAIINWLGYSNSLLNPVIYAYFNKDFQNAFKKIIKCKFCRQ

[5] = target: 5-hydroxytryptamine receptor 5A (Homo sapiens, UniProt P47898); test: as §1, with “HTR5A” for “HRH3”
Sequence of 5-hydroxytryptamine receptor 5A (P47898 whole entry): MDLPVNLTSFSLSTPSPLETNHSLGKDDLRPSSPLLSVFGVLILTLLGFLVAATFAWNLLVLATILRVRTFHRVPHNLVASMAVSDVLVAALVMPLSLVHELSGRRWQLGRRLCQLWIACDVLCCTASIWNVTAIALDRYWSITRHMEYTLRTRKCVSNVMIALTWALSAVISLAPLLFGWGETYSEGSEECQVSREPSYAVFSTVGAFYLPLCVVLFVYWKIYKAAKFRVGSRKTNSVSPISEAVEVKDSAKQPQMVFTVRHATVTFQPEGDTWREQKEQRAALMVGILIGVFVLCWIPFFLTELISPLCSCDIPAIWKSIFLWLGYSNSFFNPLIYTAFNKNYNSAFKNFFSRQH

[6] = target: T4, Alpha-2A adrenergic receptor (Homo sapiens, UniProt P08913); test: as §1, with “ADRA2A” for “HRH3”
T4 sequence (P08913 whole entry): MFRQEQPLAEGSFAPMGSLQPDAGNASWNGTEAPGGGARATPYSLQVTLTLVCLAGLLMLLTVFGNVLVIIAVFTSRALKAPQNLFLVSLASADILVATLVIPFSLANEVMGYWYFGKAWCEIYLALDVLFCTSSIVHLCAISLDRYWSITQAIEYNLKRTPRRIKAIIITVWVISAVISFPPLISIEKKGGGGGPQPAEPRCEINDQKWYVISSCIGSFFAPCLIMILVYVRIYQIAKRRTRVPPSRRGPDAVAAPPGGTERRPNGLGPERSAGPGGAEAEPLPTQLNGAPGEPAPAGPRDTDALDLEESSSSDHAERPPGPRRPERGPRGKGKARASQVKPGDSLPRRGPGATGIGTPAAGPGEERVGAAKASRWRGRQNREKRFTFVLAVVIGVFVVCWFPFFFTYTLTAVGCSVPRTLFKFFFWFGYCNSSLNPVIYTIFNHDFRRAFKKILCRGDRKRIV

D(3) dopamine receptor = D(3) dopamine receptor (Homo sapiens, UniProt P35462); test: as §1, with “DRD3” for “HRH3”
Sequence of D(3) dopamine receptor (P35462 whole entry): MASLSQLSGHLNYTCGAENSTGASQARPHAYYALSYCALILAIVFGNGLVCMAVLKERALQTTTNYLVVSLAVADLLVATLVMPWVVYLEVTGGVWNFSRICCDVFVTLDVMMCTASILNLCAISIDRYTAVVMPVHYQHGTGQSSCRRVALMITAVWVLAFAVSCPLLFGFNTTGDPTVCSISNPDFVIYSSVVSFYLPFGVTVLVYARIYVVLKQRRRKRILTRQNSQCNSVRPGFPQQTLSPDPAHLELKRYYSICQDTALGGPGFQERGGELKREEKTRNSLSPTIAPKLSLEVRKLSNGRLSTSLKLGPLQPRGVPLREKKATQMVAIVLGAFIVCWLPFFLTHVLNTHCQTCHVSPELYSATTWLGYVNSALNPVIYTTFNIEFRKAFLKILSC

[7] = target: Sigma non-opioid intracellular receptor 1 (Homo sapiens, UniProt Q99720); test: as §1, with “SIGMAR1” for “HRH3”
Sequence of Sigma non-opioid intracellular receptor 1 (Q99720 whole entry): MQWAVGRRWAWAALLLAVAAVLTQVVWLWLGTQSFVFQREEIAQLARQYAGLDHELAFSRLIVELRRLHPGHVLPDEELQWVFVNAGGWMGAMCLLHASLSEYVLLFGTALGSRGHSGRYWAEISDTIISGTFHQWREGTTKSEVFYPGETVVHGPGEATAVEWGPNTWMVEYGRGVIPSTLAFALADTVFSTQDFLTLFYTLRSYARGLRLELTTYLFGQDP

[8] = target: Sodium-dependent noradrenaline transporter (Homo sapiens, UniProt P23975); test: as §1, with “SLC6A2” for “HRH3”
Sequence of Sodium-dependent noradrenaline transporter (P23975 whole entry): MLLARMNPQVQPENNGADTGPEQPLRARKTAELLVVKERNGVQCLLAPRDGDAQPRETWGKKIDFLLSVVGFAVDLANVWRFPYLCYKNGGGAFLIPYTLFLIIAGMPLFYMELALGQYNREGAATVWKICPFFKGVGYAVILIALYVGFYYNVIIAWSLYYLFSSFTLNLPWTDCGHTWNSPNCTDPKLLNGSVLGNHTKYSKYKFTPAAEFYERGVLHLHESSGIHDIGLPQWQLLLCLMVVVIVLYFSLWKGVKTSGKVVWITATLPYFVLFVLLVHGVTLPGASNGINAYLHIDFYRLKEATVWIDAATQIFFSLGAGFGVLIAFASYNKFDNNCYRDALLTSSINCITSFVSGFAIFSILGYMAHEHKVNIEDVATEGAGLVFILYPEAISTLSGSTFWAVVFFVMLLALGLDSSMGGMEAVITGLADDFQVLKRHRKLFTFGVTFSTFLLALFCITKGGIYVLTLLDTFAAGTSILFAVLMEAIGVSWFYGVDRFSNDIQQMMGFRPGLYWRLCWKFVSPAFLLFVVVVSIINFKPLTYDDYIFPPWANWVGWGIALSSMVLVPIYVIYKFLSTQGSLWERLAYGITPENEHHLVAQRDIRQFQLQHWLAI

[9] = target: T5, Alpha-1D adrenergic receptor (Homo sapiens, UniProt P25100); test: as §1, with “ADRA1D” for “HRH3”
T5 sequence (P25100 whole entry): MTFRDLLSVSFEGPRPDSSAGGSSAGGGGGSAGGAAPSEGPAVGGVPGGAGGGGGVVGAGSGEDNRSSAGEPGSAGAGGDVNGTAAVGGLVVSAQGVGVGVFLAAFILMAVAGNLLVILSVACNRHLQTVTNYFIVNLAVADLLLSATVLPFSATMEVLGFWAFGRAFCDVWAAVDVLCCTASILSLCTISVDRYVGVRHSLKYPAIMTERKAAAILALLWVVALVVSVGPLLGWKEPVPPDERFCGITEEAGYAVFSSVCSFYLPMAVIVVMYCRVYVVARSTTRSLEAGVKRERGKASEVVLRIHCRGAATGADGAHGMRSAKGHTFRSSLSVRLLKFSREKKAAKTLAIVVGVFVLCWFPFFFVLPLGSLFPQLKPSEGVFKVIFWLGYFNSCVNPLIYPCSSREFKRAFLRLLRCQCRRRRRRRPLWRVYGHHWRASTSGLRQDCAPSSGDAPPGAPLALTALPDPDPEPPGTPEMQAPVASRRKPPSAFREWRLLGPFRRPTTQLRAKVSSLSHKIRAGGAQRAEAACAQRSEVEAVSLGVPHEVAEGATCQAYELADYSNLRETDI

[10] = target: 5-hydroxytryptamine receptor 1D (Homo sapiens, UniProt P28221); test: as §1, with “HTR1D” for “HRH3”
Sequence of 5-hydroxytryptamine receptor 1D (P28221 whole entry): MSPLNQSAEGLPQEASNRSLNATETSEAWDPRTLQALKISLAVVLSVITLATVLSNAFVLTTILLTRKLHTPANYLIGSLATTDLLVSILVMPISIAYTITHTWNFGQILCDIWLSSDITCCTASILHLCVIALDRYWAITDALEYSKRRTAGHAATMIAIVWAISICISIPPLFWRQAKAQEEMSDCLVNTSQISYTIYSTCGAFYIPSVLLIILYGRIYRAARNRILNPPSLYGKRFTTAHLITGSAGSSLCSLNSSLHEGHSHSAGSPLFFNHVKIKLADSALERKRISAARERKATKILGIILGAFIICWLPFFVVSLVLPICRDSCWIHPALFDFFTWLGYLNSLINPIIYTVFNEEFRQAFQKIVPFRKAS

[11] = target: 5-hydroxytryptamine receptor 2A (Homo sapiens, UniProt P28223); test: as §1, with “HTR2A” for “HRH3”
Sequence of 5-hydroxytryptamine receptor 2A (P28223 whole entry): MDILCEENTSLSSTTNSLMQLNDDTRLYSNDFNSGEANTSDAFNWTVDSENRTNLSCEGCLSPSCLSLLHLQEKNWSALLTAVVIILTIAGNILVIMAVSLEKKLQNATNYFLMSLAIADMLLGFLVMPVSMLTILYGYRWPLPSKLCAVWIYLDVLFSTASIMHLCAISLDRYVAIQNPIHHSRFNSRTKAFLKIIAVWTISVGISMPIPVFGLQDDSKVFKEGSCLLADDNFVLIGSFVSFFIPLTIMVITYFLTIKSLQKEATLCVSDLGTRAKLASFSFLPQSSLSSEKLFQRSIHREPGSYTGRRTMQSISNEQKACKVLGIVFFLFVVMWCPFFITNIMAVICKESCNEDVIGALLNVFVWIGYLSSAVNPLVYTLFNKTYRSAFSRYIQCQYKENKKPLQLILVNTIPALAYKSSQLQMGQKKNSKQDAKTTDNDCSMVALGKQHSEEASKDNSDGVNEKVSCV

[12] = target: T6, Alpha-2C adrenergic receptor (Homo sapiens, UniProt P18825); test: as §1, with “ADRA2C” for “HRH3”
T6 sequence (P18825 whole entry): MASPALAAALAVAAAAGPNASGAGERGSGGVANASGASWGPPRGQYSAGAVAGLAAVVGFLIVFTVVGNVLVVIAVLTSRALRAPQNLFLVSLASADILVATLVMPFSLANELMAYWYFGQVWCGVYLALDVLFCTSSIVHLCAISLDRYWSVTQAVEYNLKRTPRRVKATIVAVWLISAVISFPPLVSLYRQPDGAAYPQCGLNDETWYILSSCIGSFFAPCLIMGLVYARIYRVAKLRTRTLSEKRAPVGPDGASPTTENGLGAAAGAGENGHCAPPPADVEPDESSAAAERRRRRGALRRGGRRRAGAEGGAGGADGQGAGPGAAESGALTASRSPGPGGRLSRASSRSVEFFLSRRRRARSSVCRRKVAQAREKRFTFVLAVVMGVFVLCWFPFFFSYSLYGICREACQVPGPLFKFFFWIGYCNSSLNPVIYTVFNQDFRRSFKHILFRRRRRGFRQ

[13] = target: 5-hydroxytryptamine receptor 7 (Homo sapiens, UniProt P34969); test: as §1, with “HTR7” for “HRH3”
Sequence of 5-hydroxytryptamine receptor 7 (P34969 whole entry): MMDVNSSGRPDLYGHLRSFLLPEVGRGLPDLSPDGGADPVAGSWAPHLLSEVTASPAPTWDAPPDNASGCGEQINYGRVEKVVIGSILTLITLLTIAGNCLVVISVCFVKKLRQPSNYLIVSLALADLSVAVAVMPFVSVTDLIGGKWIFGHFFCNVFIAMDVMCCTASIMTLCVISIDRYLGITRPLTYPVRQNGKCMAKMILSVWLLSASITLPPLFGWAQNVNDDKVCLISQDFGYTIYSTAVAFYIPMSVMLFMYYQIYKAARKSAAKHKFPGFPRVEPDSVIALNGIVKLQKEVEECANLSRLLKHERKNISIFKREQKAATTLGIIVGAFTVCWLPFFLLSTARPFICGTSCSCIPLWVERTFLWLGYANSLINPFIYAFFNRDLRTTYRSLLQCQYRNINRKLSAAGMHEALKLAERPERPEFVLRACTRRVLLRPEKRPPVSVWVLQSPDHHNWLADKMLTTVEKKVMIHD

[14] = target: Beta-3 adrenergic receptor (Homo sapiens, UniProt P13945); test: as §1, with “ADRB3” for “HRH3”
Sequence of Beta-3 adrenergic receptor (P13945 whole entry): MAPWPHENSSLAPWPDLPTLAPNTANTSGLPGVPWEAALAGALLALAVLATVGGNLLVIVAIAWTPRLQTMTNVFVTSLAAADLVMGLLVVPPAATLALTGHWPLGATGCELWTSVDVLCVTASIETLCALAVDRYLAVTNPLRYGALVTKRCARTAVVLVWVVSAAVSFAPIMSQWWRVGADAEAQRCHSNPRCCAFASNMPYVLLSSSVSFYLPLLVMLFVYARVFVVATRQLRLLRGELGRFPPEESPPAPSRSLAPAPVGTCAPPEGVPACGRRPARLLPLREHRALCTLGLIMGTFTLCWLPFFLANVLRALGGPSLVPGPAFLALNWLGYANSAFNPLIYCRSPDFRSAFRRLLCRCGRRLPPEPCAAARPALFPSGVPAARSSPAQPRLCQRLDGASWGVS

D(1B) dopamine receptor = D(1B) dopamine receptor (Homo sapiens, UniProt P21918); test: as §1, with “DRD5” for “HRH3”
Translocator protein = Translocator protein (Homo sapiens, UniProt P30536); test: as §1, with “TSPO” for “HRH3”
Sequence of Translocator protein (P30536 whole entry): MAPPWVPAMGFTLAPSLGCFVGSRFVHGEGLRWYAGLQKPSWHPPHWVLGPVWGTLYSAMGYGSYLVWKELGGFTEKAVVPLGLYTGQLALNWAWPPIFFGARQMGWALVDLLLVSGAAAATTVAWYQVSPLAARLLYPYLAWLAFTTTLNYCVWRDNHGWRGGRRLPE

pKi (Histamine H3 receptor): 9.20
Structure (SMILES): c1nc(CC2CCNCC2)c[nH]1

pKi [1]: 5.49
pKi (D(4) dopamine receptor): 6.04
pKi [2]: 6.51
pKi (D(2) dopamine receptor): 6.16
pKi (Mu-type opioid receptor): 6.73
pKi [3]: < 5.00
pKi [4]: 5.83
Structure (SMILES): CN[C@@H]1CCc2[nH]c3ccc(C(N)=O)cc3c2C1 [FROVATRIPTAN SUCCINATE]

pKi [1]: 5.28
pKi [5]: 6.07
pKi [6]: 6.07
pKi (D(3) dopamine receptor): 6.38
pKi [7]: < 5.00
pKi [8]: 5.24
pKi [2]: 5.24
pKi [9]: 5.78
pKi (Mu-type opioid receptor): 5.25
pKi [10]: 6.53
pKi [11]: 5.46
pKi [12]: 6.07
pKi [13]: 5.66
pKi [14]: 5.56
pKi (D(1B) dopamine receptor): 6.00
pKi (Translocator protein): 6.28
Structure (SMILES): Cc1cc(C)cc(-c2cnc3cc(Cl)c(-c4cccc(O)c4)cc3c2OCCCN)c1
